From publication PMC8447253 (2021) come the findings set out here.

What all share (assay): emission titration (737 nm), Bard equation
Common to all, as to details: K+ (50 mM potassium phosphate), pH 7, enantiomer by table order, per base

Assay [1] has as its system d(ATTATTATTATATTA)/d(TAATATAATAATAAT) (AT DNA) (DNA, duplex) ATTATTATTATATTA/TAATATAATAATAAT
Assay [2] deals with d(CGCGAATTCGCG)2 (DNA, duplex) CGCGAATTCGCG
Assay [3] concerns d(GCGCGCGCGC)2; (GC)5 (DNA, duplex) GCGCGCGCGC
In assay [4] the test system is d(CGCAAATTTGCG)2 (DNA, duplex) CGCAAATTTGCG

On to `Cc1cnc2c(ccc3c(C)c(C)cnc32)c1C.Cc1cnc2c(ccc3c(C)c(C)cnc32)c1C.[Cr+3].c1ccc2nc3c4cccnc4c4ncccc4c3nc2c1`, for which the KDNA in assay [1] (site size n 2.25 ± 0.05 base pairs) is 4e+06 M⁻¹; in assay [1] (site size n 2.28 ± 0.05 base pairs) it was 3e+06 M⁻¹; in assay [2] (site size n 1.6 ± 0.1 base pairs), 1.4e+06 M⁻¹; in assay [2] (site size n 1.7 ± 0.1 base pairs) it was 510000 M⁻¹; in assay [3] (site size n 3.1 ± 0.1 base pairs), 770000 M⁻¹; in assay [3] (site size n 4.8 ± 0.2 base pairs) it was 610000 M⁻¹. The KDNA in assay [4] (site size n 1.92 ± 0.04 base pairs) stood at 1.7e+06 M⁻¹; in assay [4] (site size n 2.10 ± 0.09 base pairs) it was 480000 M⁻¹.
